From ChEMBL document CHEMBL1201862, “PubChem BioAssay data set” (2004)
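How tested: cells in 96-well plates exposed to compound for 48 hours at five concentrations. Abbreviation: GI50, concentration required for 50% inhibition of growth.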 Active and inactive are the calls of the source. Cut-off read from the data, not from the text of the source: active = GI50 up to about 1.1 µM and inactive = higher.

Key:
Experiment in all cases: NCI tumour cell line growth inhibition, 48 h
[1] = tested on: UACC-257
[2] = tested on: NCI-H23
[3] = tested on: DU-145
[4] = tested on: NCI-H522
[5] = tested on: ACHN
[6] = tested on: SF-295
[7] = tested on: 786-0
[8] = tested on: Hs-578T
[9] = tested on: SN12C
[10] = tested on: MDA-MB-231
[11] = tested on: A498
[12] = tested on: HCC 2998
[13] = tested on: MOLT-4
[14] = tested on: MDA-N
[15] = tested on: OVCAR-5
[16] = tested on: HCT-116
[17] = tested on: A549
[18] = tested on: SK-MEL-5
[19] = tested on: OVCAR-4
[20] = tested on: IGROV-1
[21] = tested on: U-251
[22] = tested on: SNB-75
[23] = tested on: PC-3
[24] = tested on: BT-549
[25] = tested on: UACC-62
[26] = tested on: EKVX
[27] = tested on: MCF7
[28] = tested on: RPMI-8226
[29] = tested on: SK-MEL-28
[30] = tested on: TK-10
[31] = tested on: SNB-19
[32] = tested on: T47D
[33] = tested on: SF-539
[34] = tested on: MDA-MB-435
[35] = tested on: RXF 393
[36] = tested on: NCI-H460
[37] = tested on: M14
[38] = tested on: UO-31
[39] = tested on: CAKI-1
[40] = tested on: HOP-62
[41] = tested on: K562
[42] = tested on: SF-268
[43] = tested on: HOP-92
[44] = tested on: SK-OV-3
[45] = tested on: OVCAR-3
[46] = tested on: SK-MEL-2
[47] = tested on: COLO 205
[48] = tested on: HT-29
[49] = tested on: NCI-H226
[50] = tested on: SW-620
[51] = tested on: HCT-15
[52] = tested on: OVCAR-8
[53] = tested on: Malme-3M
[54] = tested on: NCI/ADR-RES
[55] = tested on: HL-60
[56] = tested on: SR
[57] = tested on: LOX IMVI
[58] = tested on: CCRF-CEM
[59] = tested on: KM12

With `C=CCc1ccccc1CC1(OCC)OC(=O)c2ccccc21` (stereo unspecified) the GI50 [1] was 60.7 µM (inactive), the GI50 [2] was 56.5 µM (inactive) and the GI50 [3] was > 100 µM (inactive). For the same compound, the GI50 [4] was 67.8 µM (inactive), the GI50 [5] was > 100 µM (inactive) and the GI50 [6] was > 100 µM (inactive). The GI50 [7] was > 100 µM (inactive), the GI50 [8] was > 100 µM (inactive) and the GI50 [9] was 87.7 µM (inactive). For the same compound, the GI50 [10] was 72.8 µM (inactive), the GI50 [11] was > 100 µM (inactive) and the GI50 [12] was > 100 µM (inactive). The GI50 [13] was 48.8 µM (inactive), the GI50 [14] was 31.3 µM (inactive) and the GI50 [15] was > 100 µM (inactive). For the same compound, the GI50 [16] was 41.2 µM (inactive), the GI50 [17] was > 100 µM (inactive) and the GI50 [18] was 39.9 µM (inactive). The GI50 [19] was > 100 µM (inactive), the GI50 [20] was > 100 µM (inactive) and the GI50 [21] was > 100 µM (inactive). For the same compound, the GI50 [22] was 0.0259 µM (active), the GI50 [23] was 83 µM (inactive) and the GI50 [24] was 96.8 µM (inactive). The GI50 [25] was > 100 µM (inactive), the GI50 [26] was > 100 µM (inactive) and the GI50 [27] was > 100 µM (inactive). The GI50 [28] was 17 µM (inactive), the GI50 [29] was > 100 µM (inactive) and the GI50 [30] was > 100 µM (inactive). The GI50 [31] was > 100 µM (inactive), the GI50 [32] was 76.9 µM (inactive) and the GI50 [33] was > 100 µM (inactive). The GI50 [34] was 28.8 µM (inactive), the GI50 [35] was > 100 µM (inactive) and the GI50 [36] was 77.6 µM (inactive). The GI50 [37] was 66.1 µM (inactive), the GI50 [38] was > 100 µM (inactive) and the GI50 [39] was > 100 µM (inactive). For the same compound, the GI50 [40] was 94 µM (inactive), the GI50 [41] was 51.8 µM (inactive) and the GI50 [42] was > 100 µM (inactive). The GI50 [43] was 33.8 µM (inactive), the GI50 [44] was > 100 µM (inactive) and the GI50 [45] was 41.2 µM (inactive). For the same compound, the GI50 [46] was 89.3 µM (inactive), the GI50 [47] was 67.1 µM (inactive) and the GI50 [48] was 45.2 µM (inactive). For the same compound, the GI50 [49] was > 100 µM (inactive), the GI50 [50] was > 100 µM (inactive) and the GI50 [51] was 42.3 µM. For the same compound, the GI50 [52] was > 100 µM (inactive).

`O=C1Nc2nnc(S)n2NC12c1ccccc1-c1ccccc12` was tested, and the GI50 [1] was 17.2 µM (inactive), the GI50 [2] was > 100 µM (inactive) and the GI50 [3] was > 100 µM (inactive). The GI50 [4] was > 100 µM (inactive), the GI50 [5] was > 100 µM (inactive) and the GI50 [6] was > 100 µM (inactive). The GI50 [7] was > 100 µM (inactive), the GI50 [8] was > 100 µM (inactive) and the GI50 [9] was > 100 µM (inactive). For the same compound, the GI50 [10] was > 100 µM (inactive), the GI50 [11] was > 100 µM (inactive) and the GI50 [12] was > 100 µM (inactive). For the same compound, the GI50 [14] was 34.5 µM (inactive), the GI50 [15] was > 100 µM (inactive) and the GI50 [16] was 24.2 µM (inactive). The GI50 [17] was > 100 µM (inactive), the GI50 [53] was > 100 µM (inactive) and the GI50 [18] was > 100 µM (inactive). The GI50 [19] was 19.1 µM (inactive), the GI50 [20] was 96.6 µM (inactive) and the GI50 [21] was > 100 µM (inactive). For the same compound, the GI50 [22] was > 100 µM (inactive), the GI50 [54] was > 100 µM (inactive) and the GI50 [23] was > 100 µM (inactive). For the same compound, the GI50 [24] was > 100 µM (inactive), the GI50 [25] was 22.4 µM (inactive) and the GI50 [26] was > 100 µM (inactive). The GI50 [27] was 33.2 µM (inactive), the GI50 [29] was > 100 µM (inactive) and the GI50 [55] was > 100 µM (inactive). For the same compound, the GI50 [30] was > 100 µM (inactive), the GI50 [31] was > 100 µM (inactive) and the GI50 [33] was > 100 µM (inactive). For the same compound, the GI50 [34] was 16.8 µM (inactive), the GI50 [35] was > 100 µM (inactive) and the GI50 [36] was 39.4 µM (inactive). The GI50 [37] was 52 µM (inactive), the GI50 [38] was > 100 µM (inactive) and the GI50 [39] was 57.3 µM (inactive). For the same compound, the GI50 [40] was > 100 µM (inactive), the GI50 [42] was 65.2 µM (inactive) and the GI50 [56] was 33 µM (inactive). The GI50 [43] was > 100 µM (inactive), the GI50 [44] was > 100 µM (inactive) and the GI50 [45] was > 100 µM (inactive). The GI50 [46] was > 100 µM (inactive), the GI50 [47] was > 100 µM (inactive) and the GI50 [48] was > 100 µM (inactive). For the same compound, the GI50 [57] was 58.9 µM (inactive), the GI50 [49] was > 100 µM (inactive) and the GI50 [50] was > 100 µM (inactive). The GI50 [51] was 97.3 µM and the GI50 [52] was > 100 µM (inactive).

With `CCCCCCCCCCCCCCCCOCC(Cl)COP(=O)(O)OP(=O)(O)OCC1OC(n2cc(C)c(=O)[nH]c2=O)CC1O` (stereo unspecified) the GI50 [1] was > 100 µM (inactive), the GI50 [2] was > 100 µM (inactive) and the GI50 [4] was > 100 µM (inactive). For the same compound, the GI50 [5] was > 100 µM (inactive), the GI50 [6] was 57 µM (inactive) and the GI50 [7] was > 100 µM (inactive). The GI50 [8] was 31.4 µM (inactive), the GI50 [9] was 70 µM (inactive) and the GI50 [10] was 49 µM (inactive). The GI50 [11] was > 100 µM (inactive), the GI50 [12] was > 100 µM (inactive) and the GI50 [13] was > 100 µM (inactive). For the same compound, the GI50 [14] was 52.8 µM (inactive), the GI50 [15] was 95.1 µM (inactive) and the GI50 [16] was > 100 µM (inactive). The GI50 [17] was > 100 µM (inactive), the GI50 [53] was > 100 µM (inactive) and the GI50 [18] was > 100 µM (inactive). The GI50 [19] was > 100 µM (inactive), the GI50 [20] was 55.2 µM (inactive) and the GI50 [58] was > 100 µM (inactive). The GI50 [21] was > 100 µM (inactive), the GI50 [22] was 26.7 µM (inactive) and the GI50 [54] was 71.3 µM (inactive). For the same compound, the GI50 [23] was 25.1 µM (inactive), the GI50 [24] was > 100 µM (inactive) and the GI50 [26] was > 100 µM (inactive). For the same compound, the GI50 [27] was > 100 µM (inactive), the GI50 [28] was > 100 µM (inactive) and the GI50 [29] was 55.2 µM (inactive). The GI50 [55] was > 100 µM (inactive), the GI50 [30] was > 100 µM (inactive) and the GI50 [31] was > 100 µM (inactive). For the same compound, the GI50 [32] was 97.3 µM (inactive), the GI50 [33] was 72.9 µM (inactive) and the GI50 [34] was 57.1 µM (inactive). For the same compound, the GI50 [35] was > 100 µM (inactive), the GI50 [36] was > 100 µM (inactive) and the GI50 [37] was > 100 µM (inactive). The GI50 [38] was > 100 µM (inactive), the GI50 [39] was > 100 µM (inactive) and the GI50 [40] was > 100 µM (inactive). For the same compound, the GI50 [41] was > 100 µM (inactive), the GI50 [42] was 69.2 µM (inactive) and the GI50 [43] was 29.5 µM (inactive). The GI50 [44] was > 100 µM (inactive), the GI50 [45] was > 100 µM (inactive) and the GI50 [46] was > 100 µM (inactive). The GI50 [47] was > 100 µM (inactive), the GI50 [48] was > 100 µM (inactive) and the GI50 [57] was > 100 µM (inactive). The GI50 [49] was 28.8 µM (inactive), the GI50 [59] was 95.7 µM (inactive) and the GI50 [50] was > 100 µM (inactive). The GI50 [51] was over 100 µM and the GI50 [52] was 75.9 µM (inactive).
